Experimental data reported in PMC6750840 (Journal of Medicinal Chemistry, 2019).
Each block holds one compound with its values, some of them ahead of it.

Columns and labels:
[1] = system: histamine-induced flare response; conditions: after oral administration; cited from earlier work
[2] = after administration; cited from earlier work
H1R = conditions: cited from earlier work
human H1R = human H1R (Homo sapiens, UniProt P35367); assay: Binding rate constants of [3H]levocetirizine; conditions: four concentrations (1–35 nM), 360 min, 37 °C
Sequence of human H1R (P35367 whole entry): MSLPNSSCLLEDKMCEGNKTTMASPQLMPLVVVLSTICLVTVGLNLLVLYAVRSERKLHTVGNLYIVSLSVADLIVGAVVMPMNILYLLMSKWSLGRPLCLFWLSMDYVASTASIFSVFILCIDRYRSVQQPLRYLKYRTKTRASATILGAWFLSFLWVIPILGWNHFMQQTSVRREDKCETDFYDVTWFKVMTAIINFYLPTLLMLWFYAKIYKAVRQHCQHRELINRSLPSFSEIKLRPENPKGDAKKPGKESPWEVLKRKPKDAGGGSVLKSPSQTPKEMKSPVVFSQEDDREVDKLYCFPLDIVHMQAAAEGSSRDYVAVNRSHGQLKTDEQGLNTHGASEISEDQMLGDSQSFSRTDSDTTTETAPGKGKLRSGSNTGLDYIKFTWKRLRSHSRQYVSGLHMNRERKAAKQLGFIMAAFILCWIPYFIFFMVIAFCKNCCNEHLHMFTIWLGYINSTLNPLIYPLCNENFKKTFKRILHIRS

Compound: Cc1cncc(CN2CCC(=C3c4ccc(Cl)cc4CCc4cccnc43)CC2)c1 [Compound 1, rupatadine]
duration of antagonism of the histamine-induced flare response [1]: up to 72 h
time up to which plasma levels could be detected [2]: up to 12 h

Compound: O=C(O)COCCN1CCN([C@H](c2ccccc2)c2ccc(Cl)cc2)CC1 [levocetirizine]
fold longer residence time at the H1R than mepyramine (H1R): 100 fold

koff (human H1R): 0.022 ± 0.003 min^–1
kon (human H1R): 3.7 ± 0.4 10^6 min^–1 M^–1
Compound: (R)-5-(4-((4-Chlorophenyl)([4-^3H]phenyl)methyl)piperazin-1-yl)pentanoic Acid [[^3H]levocetirizine]
